Values quoted from earlier work as cited in US20090105346A1, “Novel crystalline forms of armodafinil and preparation thereof” (priority 2007, published 2009).

Conditions: S enantiomer of modafinil compared with R enantiomer; Prisinzano et al., Tetrahedron: Asymmetry (2004)

For NC(=O)C[S+]([O-])C(c1ccccc1)c1ccccc1 (single isomer, unassigned) [S enantiomer], the “elimination from the body relative to the R enantiomer” value is listed as “three times faster”.
